Square brackets hold non-standard residues; d marks the D form. Peptide text beside a SMILES is read from it. * marks the point of attachment. dPhe(4-NHCONH2) = NC(=O)Nc1ccc(C[C@@H](N)C(=O)O)cc1; Dihydroorotyl(S) = O=C1C[C@@H](C(=O)*)NC(=O)N1; dPhe(4-Cl) = N[C@H](Cc1ccc(Cl)cc1)C(=O)O; Phe(4-NH2) = Nc1ccc(C[C@H](N)C(=O)O)cc1; d2Nal = N[C@H](Cc1ccc2ccccc2c1)C(=O)O; Lys(iPr) = CC(C)NCCCC[C@H](N)C(=O)O; d3Pal = N[C@H](Cc1cccnc1)C(=O)O
Tests used:
prostate tumor cells = test: AR expression in prostate tumor cells in vitro after treatment with AR antagonists; format: cell-based; conditions: after treatment with AR antagonist
Myc-CaP/AS tumors [1] = test: Myc-CaP/AS tumor growth in FVB mice, ADT with or without immunization; format: in vivo; conditions: degarelix alone, MycCaP model
Method: Briefly, male FVB mice (n=8) were implanted with MycCaP tumors, treated with degarelix (or sham), and immunized weekly with pTVG-AR or control pTVG4. FIG. 8A, splenocytes were collected and analyzed for immune responses against MycCaP/CR tumor cells by intracellular cytokine staining (left panel) and AR peptide-stimulated splenocytes from pTVG-AR-immunized mice were measured for ability to lyse MycCap/AS vs. MycCap/CR tumor cells (right panel). FIG. 8B depicts mice followed for tumor volume. In all panels, * indicates p<0.05 by Student's t-test. FIG. 8C depicts tumor volume post-challenge of control (sham), degarelix+pTVG4 and degarelix+pTVG-AR.
FVB mice were inoculated subcutaneously with […] Myc-CaP/AS tumor cells, and followed daily for the presence of palpable tumors. Once tumors were palpable, mice were treated subcutaneously with either degarelix (25 mg/kg) or a vehicle sham treatment every four weeks. For immunization studies, degarelix-treated animals were randomized to weekly immunization with 100 μg pTVG4 or pTVG-AR beginning one day after receiving degarelix. Tumor growth was measured at least three times weekly, and tumor volumes calculated as we've published (19). At the time of euthanasia, tumors and spleens were collected. […]

[2] = system: PTEN-deficient prostate tumors; test: Autochthonous prostate tumors in PbCre+ PTENfl/fl mice, PET/CT and necropsy; format: in vivo; conditions: androgen deprivation (degarelix) vs sham, pre- to post-treatment
Method: FVB mice were inoculated subcutaneously with […] Myc-CaP/AS tumor cells, and followed daily for the presence of palpable tumors. Once tumors were palpable, mice were treated subcutaneously with either degarelix (25 mg/kg) or a vehicle sham treatment every four weeks. For immunization studies, degarelix-treated animals were randomized to weekly immunization with 100 μg pTVG4 or pTVG-AR beginning one day after receiving degarelix. Tumor growth was measured at least three times weekly, and tumor volumes calculated as we've published (19). At the time of euthanasia, tumors and spleens were collected. For studies using PTEN-deficient mice, animals began receiving degarelix (25 mg/kg) at 20 weeks (+/−two weeks) of age, followed by biweekly immunization with 100 μg pTVG4 or pTVG-AR beginning one day after ADT. Animals were treated until 40 weeks of age (+/−two weeks) before tissue collection.
All mice were intravenously administered between 5-8 MBq of 124I-CLR1404 and then micro positron emission tomography/computed tomography (PET/CT) scanned 96 hrs post-injection. During scanning, mice were anesthetized with 2% isoflurane inhalation gas mixed with 1 L/min of pure oxygen (27). […]
All PET and CT images were co-registered. Image data were analyzed using the General Analysis tools provided by Siemens Inveon Research Workplace (Siemens Medical Solutions). […]

Myc-CaP/AS tumors [3] = test: AR expression in MycCaP tumors in vivo after chemical castration, intracellular staining; parameters: species or system FVB mice; conditions: MycCaP model in vivo, degarelix vs sham, tumors at outgrowth
Source text: Briefly, Human 22Rv1 prostate cancer cells cultured in androgen replete (FCS) or—deprived (CSS) conditions (FIG. 7A), or mouse MycCaP cells serially passaged in untreated (MycCaP/AS) or castrate (MycCaP/CR) mice (FIG. 7B) were collected and analyzed for AR expression by qPCR (left panels), ELISA (center panels), and intracellular staining (ICS, right panels). FIG. 7C, FVB mice were challenged with MycCaP/AS tumor cells, and given degarelix or a sham treatment. At the time of outgrowth, tumors were collected and analyzed for AR expression by intracellular flow cytometry (example histogram with samples stained with IgG or AR-intracellular antibodies; quantified in right panels). FIG. 7D, AR-specific CD8+ T cells were cultured with 22Rv1/FCS or 22Rv1/CSS cells, and evaluated for T-cell activation by CD69 expression (left panel), IFNγ and TNFα cytokine expression (center panel), and cytotoxicity (right panel). In all panels, * indicates p<0.05 by Student's t-test.
FVB mice were inoculated subcutaneously with […] Myc-CaP/AS tumor cells, and followed daily for the presence of palpable tumors. Once tumors were palpable, mice were treated subcutaneously with either degarelix (25 mg/kg) or a vehicle sham treatment every four weeks. […] Tumor growth was measured at least three times weekly, and tumor volumes calculated as we've published (19). […]

Structure (SMILES) | AR expression in prostate tumor cells (prostate tumor cells) | tumor growth (Myc-CaP/AS tumors [1]) | 124I-CLR1404 mean and max tumor uptake [2] | AR expression in tumors (Myc-CaP/AS tumors [3])
CNC(=O)c1ccc(N2C(=S)N(c3ccc(C#N)c(C(F)(F)F)c3)C(=O)C2(C)C)cc1F [enzalutamide] | increased AR expression | – | – | –
CC(=O)N[C@H](Cc1ccc2ccccc2c1)C(=O)N[C@H](Cc1ccc(Cl)cc1)C(=O)N[C@H](Cc1cccnc1)C(=O)N[C@@H](CO)C(=O)N[C@@H](Cc1ccc(NC(=O)[C@@H]2CC(=O)NC(=O)N2)cc1)C(=O)N[C@H](Cc1ccc(NC(N)=O)cc1)C(=O)N[C@@H](CC(C)C)C(=O)N[C@@H](CCCCNC(C)C)C(=O)N1CCC[C@H]1C(=O)N[C@H](C)C(N)=O [degarelix] (Ac-[d2Nal][dPhe(4-Cl)][d3Pal]S[Phe(4-NH2)](Dihydroorotyl(S))[dPhe(4-NHCONH2)]L[Lys(iPr)]P[dA]-NH2) | – | delay in tumor growth | decreased 124I-CLR1404 mean and max tumor uptake | increased AR expression in tumors

From patent US10881719B2, “Combinatorial androgen deprivation with an androgen receptor vaccine” (Wisconsin Alumni Research Foundation, priority 2016, dated 2021)
